Test results: paper PMC6214004, “Novel C15 Triene Triazole, D-A Derivatives Anti-HepG2, and as HDAC2 Inhibitors: A Synergy Study” (International Journal of Molecular Sciences, 2018)
Converted amounts (≈) assume the structure as drawn. Read-outs that look alike come from different tables or passages of the source.

What was measured:
[1] = tested on: HepG2 (human hepatocellular carcinoma); experiment: MTT assay, inhibition of HepG2 cell proliferation; type: cell-based
Procedure: Preliminary in vitro screening results of the title compounds for antitumor activity against HepG2 (human hepatocellular carcinoma) and human normal hepatocytes (LO2) were determined by MTT assay (thiazolyl blue salt colorimetry) (see Figure 1 and Figure 2). […]
All analyses were carried out with SPSS 19.0 software (SPSS, Chicago, IL, USA). […]
The measurement data material of the experimental were described by x±s. Two samples were compared with the t test. The difference was significant statistically (p < 0.05).
MTT assay detect cell proliferation
MTT assay was used to determine the inhibitory effect on the proliferation of HepG2 cells of levopimaric acid. Compound 4 and levopimaric acid were combined with three groups below. The cells in the logarithmic growth phase were inoculated into 96-well culture plates at 3.5×10^3 cells/well, 0.2 ml per well, and incubated for 72 h with different concentrations of levopimaric acid. Then, we continually cultured it for 4 h after mixing fresh MTT working solution 20 μL (final concentration was 0.5 mg/mL), and carefully discarded the supernatant, added […] of DMSO per well and shook up. The absorbance (A) at the wavelength of 490 nm was measured by a microplate reader. The cell proliferation inhibition rate was calculated according to the following formula=[(negative control group A value - blank group A value) - (experimental group A value - blank group A value)]/ (Negative control group A value - blank group A value) × 100%.
Table S1 Compound 4 and levopimaric acid anti-HepG2 by single drug.
Concentration 4 Concentration Levopimaric acid
/μM Inhibitory rate/% Inhibitory rate/% /μM […]
Detection of cell proliferation by MTT
MTT assay was used to determine the inhibitory effect of the sample on the proliferation of HepG2 cells. The tumor cells of logarithmic growth stage were inoculated with 3.5×10^3/well in 96 well culture plate. 0.2 ml/pore system was cultured for 72 h with different concentrations of samples. Then 20 μL (final concentration 0.5 mg/mL) of MTT were added to each pore for 4 h. The supernatant was carefully adsorbed, and 0.15 mL DMSO was added to each pore, and oscillatory mixing was carried out. The absorbance (A) value at 490 nm wavelength was measured by enzyme labeling instrument.
The inhibition rate of cell proliferation was calculated as follows: [(A value of negative control group - A value of blank group) - (A value of experimental group A value of blank group)]/(negative pair […]
(§1) Firstly, sucked out the original medium when the cell coverage in the culture bottle had reached 80% ~ 90%. Secondly, added appropriate trypsin (0.25%) to digest the cells for 1~2 min until they became round. Mixed the equal volume of serum-containing medium to terminate the digestion.
Thirdly, use pipette to percuss cells and make them suspend. Then, sucked the cells into a 15 mL centrifuge tube and centrifuge them for 5 min. At last, dropped the supernatant, add 1~2 mL medium to suspend the cells, and cultivated them in the culture bottle.
The first step was to add suitable trypsin digestion cells and collected the cell suspension.
Centrifuged the suspension at 1000 rpm for 5 min in the tube, and then abandoned the supernatant.
Secondly, added cryoprotectant to the cell sediment and mixed them lightly until the cell density was 1×106~1×10^7/ml. Later, divided them into 1~1.5 ml per tube, tightened the cap and made a mark on surface including the cell code and the freezing date. In the end, cooled the cells in following order: room temperature→ 4℃ (20 min) → the freezer (30 min) → low temperature refrigerator (-30℃ for 1 h) →gaseous nitrogen (30 min) →the liquid nitrogen.
(§2) Cell proliferation measured by MTT
First of all, digested the cells and counted them. Added 100 μL cell suspension (3×10^4 /ml) into each hole of the 96 holes cell culture plate. Secondly, placed the 96 holes cell culture plate in a 5% CO2 culture box for 24 h at 37℃. Then, used the medium to dilute the drug into the desired working fluid […]

[2] = tested on: human normal hepatocytes (LO2); experiment: MTT assay, inhibition (toxicity) of LO2 cell proliferation; type: cell-based; conditions: Hepatocyte, 72 h, read-out: inhibitory activity against LO2, IC50
Procedure: Preliminary in vitro screening results of the title compounds for antitumor activity against HepG2 (human hepatocellular carcinoma) and human normal hepatocytes (LO2) were determined by MTT assay (thiazolyl blue salt colorimetry) (see Figure 1 and Figure 2).
as §1
Thirdly, use pipette to percuss cells and make them suspend. Then, sucked the cells into a 15 mL centrifuge tube and centrifuge them for 5 min. At last, dropped the supernatant, add 1~2 mL medium to suspend the cells, and cultivated them in the culture bottle. […]
as §2
First of all, digested the cells and counted them. Added 100 μL cell suspension (3×10^4 /ml) into each hole of the 96 holes cell culture plate. Secondly, placed the 96 holes cell culture plate in a 5% CO2 culture box for 24 h at 37℃. Then, used the medium to dilute the drug into the desired working fluid concentration, added 100 μL per hole to the corresponding drug medium, and established a negative control group as well as a positive control group (paclitaxel, 20 ug/ml). Next, placed 96 holes cell culture plate at 37℃ and cultivated the cells in a 5% CO2 incubator for 72 h. After treating 96 holes board with MTT staining, estimated the OD value: a. Added 20 μL MTT (5 mg/ml) per hole, and cultivated cells in the box for 4 h. b. Discarded the supernatant, added 150 μL DMSO in each hole, and mixed them gently after treatment with shaker for 10 min. c. Under 490nm ultraviolet wavelength, read the OD value from ELISA.
Finally, figured up the inhibition rate of each group
*The inhibition rate (%) = (negative control group OD value - experimental group OD value) / negative control group OD value ×100%. […]
The next day, joined the corresponding drug-containing medium after the cells adhered. And established the negative control group at the same time. After 72 h, use 0.25% pancreatin (not contain EDTA) to digest the cells. Thirdly, applied PBS to scrub the cells (centrifuge them at 2000 rpm for 5min), and collected 5×10^5 cells. Then, used a volume fraction of 70% ethanol to fix the single cell suspension for 2 h (or overnight), and stored it at 4℃. Before washing, employed PBS to remove the fixative solution (if needed, filter cell suspension through 200 mesh). Added […] RNase A, and made it in water bath at 37℃ for 30 min. Later, placed it at 4℃ for 30 min without light. […]
Detection of apoptosis by Annexin-V FITC/PI double staining
Firstly, inoculated the logarithmic growth cells into the six-hole plate. […]

[3] = tested on: LO2; design: method as in earlier work; conditions: LO2, 24 h; cited from earlier work
[4] = Homo sapiens, HepG2, 72 h, 72 h, MTT, read-out: inhibitory activity against HepG2, IC50

## C/C=C\C=C\C/C=C\CCCCCCCc1cccc(O)c1O [Compound 1, triene urushiol]
[1]; Homo sapiens, HepG2, 72 h, read-out: inhibitory activity against HepG2, IC50, 72 h, MTT
  IC50: < 50 µM
[1]; read-out: inhibitory activity against HepG2, IC50, 72 h, MTT
  IC50: 28.6 µM
[2]
  IC50: 66.1 µM

## CC(C)C1=CC[C@H]2C(=C1)CC[C@@H]1[C@]2(C)CCC[C@@]1(C)C(=O)O [Compound 5, Levopimaric Acid]
[1]; [4]
  IC50: 39.5 µM
[1]; Homo sapiens, HepG2, 0.585 μM, 72 h, read-out: Inhibitory rate/%, anti-HepG2 by single drug
  inhibition at 0.585 µM: 4.12%
[1]; Homo sapiens, HepG2, 1.171 μM, 72 h, read-out: Inhibitory rate/%, anti-HepG2 by single drug
  inhibition at 1.171 µM: 5.45%
[1]; Homo sapiens, HepG2, 2.343 μM, 72 h, read-out: Inhibitory rate/%, anti-HepG2 by single drug
  inhibition at 2.343 µM: 9.45%
[1]; Homo sapiens, HepG2, 4.687 μM, 72 h, read-out: Inhibitory rate/%, anti-HepG2 by single drug
  inhibition at 4.687 µM: 13.8%
[1]; Homo sapiens, HepG2, 9.375 μM, 72 h, read-out: Inhibitory rate/%, anti-HepG2 by single drug
  inhibition at 9.375 µM: 32.1%
[1]; Homo sapiens, HepG2, 18.75 μM, 72 h, read-out: Inhibitory rate/%, anti-HepG2 by single drug
  inhibition at 18.75 µM: 44.6%
[1]; Homo sapiens, HepG2, 37.5 μM, 72 h, read-out: Inhibitory rate/%, anti-HepG2 by single drug
  inhibition at 37.5 µM: 47.2%
[1]; Homo sapiens, HepG2, 75 μM, 72 h, read-out: Inhibitory rate/%, anti-HepG2 by single drug
  inhibition at 75 µM: 73.4%
[1]; Homo sapiens, HepG2, 150 μM, 72 h, read-out: Inhibitory rate/%, anti-HepG2 by single drug
  inhibition at 150 µM: 91.5%
[2]
  IC50: > 200 µM

## CC1C=CC(C/C=C\CCCCCCCc2cccc(O)c2O)C2(F)C(=O)OC(=O)C12F (stereo not shown) [Compound 15]
[1]; [4]
  IC50: 29.4 µM
[2]
  IC50: > 200 µM

## CC1C=CC(C/C=C\CCCCCCCc2cccc(O)c2O)C2(Cl)C(=O)OC(=O)C12Cl (stereo not shown) [Compound 16]
[1]; Homo sapiens, HepG2, 72 h, MTT, read-out: inhibitory activity against HepG2, IC50
  IC50: 23.9 µM
[2]
  IC50: > 200 µM

## CC(=O)O[C@H]1C(=O)[C@@]2(C)[C@H]([C@H](OC(=O)c3ccccc3)[C@]3(O)C[C@H](OC(=O)[C@H](O)[C@@H](NC(=O)c4ccccc4)c4ccccc4)C(C)=C1C3(C)C)[C@]1(OC(C)=O)CO[C@@H]1C[C@@H]2O [paclitaxel]
[3]
  IC50 on LO2: 28.5 µg/mL (≈ 33.4 µM)
